The values below come from patent publication US7223839B2, “Histamine receptor H3 polynucleotides” (Merck & Co., Inc., priority 2001, dated 2007).

One assay deals with H3b variant (Homo sapiens, UniProt Q9Y5N1, E19D). The note with it: COS-7 cells transfected with H3b; 1 μM BODIPY-L-Histamine or Fluorescein Histamine in PBS, 37° C., 30 min; compared with H3a wild type. The protocol:
(§1) The full length wild type receptor (H3a) and receptor variants H3g and H3h, as well as the variant H3b (which contains the 240 base, 80 amino acid deletion in intracellular loop 3 (i3) but not the N-terminal 108 base, 36 amino acid deletion), were cloned in pCDNA3.0 eukaryotic expression vector for expression in COS-7 cells. The COS-7 cells grown in culture chambers were transfected with 2 μg of plasmid DNA containing one of the H3 receptor or receptor variants with superfect (Qiagen) transfection reagent.
(§2) Binding of Histamine to receptor or receptor variant was determined by BODIPY-L-Histamine or Fluorescein Histamine (Molecular Probes). Briefly, the transfected cells were washed with PBS and 1 μM of BODIPY-L-Histamine or Fluorescein Histamine in PBS was added to the cells and incubated at 37° C. for 30 min. Unbound fluorescent labeled histamine was washed in cold PBS and the slides were examined immediately under a fluorescent microscope.

Another assay addresses H3g receptor variant (Homo sapiens, UniProt Q9Y5N1, DEL7-42). The note with it: COS-7 cells transfected with H3g; 1 μM BODIPY-L-Histamine or Fluorescein Histamine in PBS, 37° C., 30 min; compared with H3a wild type. The protocol: as §1, §2
The target in another assay is H3h receptor variant (Homo sapiens, UniProt Q9Y5N1, DEL7-42). The note with it: COS-7 cells transfected with H3h; 1 μM BODIPY-L-Histamine or Fluorescein Histamine in PBS, 37° C., 30 min; compared with H3a wild type. The protocol:
as §1, §2

H3g receptor variant, sequence (Q9Y5N1 with tags, fused parts or gaps DEL7-42): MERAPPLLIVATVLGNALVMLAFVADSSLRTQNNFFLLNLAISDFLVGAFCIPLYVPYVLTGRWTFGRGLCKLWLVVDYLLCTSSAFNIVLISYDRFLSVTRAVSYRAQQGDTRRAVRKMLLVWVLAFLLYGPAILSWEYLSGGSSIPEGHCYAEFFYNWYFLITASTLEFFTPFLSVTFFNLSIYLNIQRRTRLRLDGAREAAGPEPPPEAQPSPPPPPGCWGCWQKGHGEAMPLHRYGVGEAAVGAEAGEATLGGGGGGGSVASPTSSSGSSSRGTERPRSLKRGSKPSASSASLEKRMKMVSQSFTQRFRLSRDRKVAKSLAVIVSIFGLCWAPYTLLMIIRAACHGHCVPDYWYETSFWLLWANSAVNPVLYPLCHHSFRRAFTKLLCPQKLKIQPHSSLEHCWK
H3h receptor variant, sequence (Q9Y5N1 with tags, fused parts or gaps isoform Q9Y5N1-3 DEL7-42): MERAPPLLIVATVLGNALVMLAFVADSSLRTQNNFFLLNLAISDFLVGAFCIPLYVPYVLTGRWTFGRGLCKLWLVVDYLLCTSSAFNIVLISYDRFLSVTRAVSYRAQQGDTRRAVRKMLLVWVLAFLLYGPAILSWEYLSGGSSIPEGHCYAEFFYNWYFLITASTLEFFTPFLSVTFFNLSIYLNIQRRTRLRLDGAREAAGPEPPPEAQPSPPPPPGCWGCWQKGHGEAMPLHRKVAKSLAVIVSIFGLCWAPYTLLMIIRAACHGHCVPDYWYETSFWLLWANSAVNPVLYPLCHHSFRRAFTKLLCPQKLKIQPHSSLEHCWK
H3b variant, sequence (Q9Y5N1 1-365 isoform Q9Y5N1-3 E19D): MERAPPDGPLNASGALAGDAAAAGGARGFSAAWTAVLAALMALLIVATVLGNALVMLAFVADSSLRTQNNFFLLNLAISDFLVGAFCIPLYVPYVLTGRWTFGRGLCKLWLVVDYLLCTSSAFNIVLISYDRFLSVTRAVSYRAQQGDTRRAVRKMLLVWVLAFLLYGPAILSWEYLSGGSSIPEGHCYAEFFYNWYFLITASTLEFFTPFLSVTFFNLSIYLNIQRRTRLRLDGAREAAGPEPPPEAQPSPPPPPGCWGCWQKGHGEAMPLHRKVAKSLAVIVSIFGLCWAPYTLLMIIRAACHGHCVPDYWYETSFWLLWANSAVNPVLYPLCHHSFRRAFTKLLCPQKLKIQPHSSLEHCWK

`NCCc1c[nH]cn1` [histamine]: the histamine binding result on H3b variant, at H3g receptor variant and on H3h receptor variant was “comparable to the cell transfected with the H3a wild type receptor” each time.
